Reference: the supplement of paper PMC10627819

Experiments:
Details in all cases: main component drawn
S. aureus Newman [1] = assay: fitness (endpoint OD595 vs no drug) (fraction); higher = more growth
In short: (§1)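 Cultures at OD595 0.01 were dispensed into 384-well plates in TSB, LB Lennox or CY and incubated at 37 °C. Every 30 min for 14 h, OD595 was read and corrected by the first reading. Fitness is the optical density at entry into stationary phase relative to the robust mean of no-drug control wells, capped at 1.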

S. aureus DSM 20231 = assay: Bliss interaction score (quartile over a dose matrix) (fitness difference); higher = more antagonism (negative = synergy)
In short: (§2)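 Fitness is OD595 at stationary-phase entry relative to the plate's robust no-drug mean, capped at 1. Single-drug fitness was inferred from combinations. The Bliss score is observed minus product-expected fitness, summarised by quartiles over technical, biological and donor/recipient replicates.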

S. aureus Newman [2] = assay: as above
In short: as §2

S. pneumoniae D39V [3] = assay: as above
In short: as §2

B. subtilis 168 [4] = assay: as above
In short: as §2

S. pneumoniae D39V [5] = assay: fitness (endpoint OD595 vs no drug) (fraction); higher = more growth
In short: as §1

B. subtilis 168 [6] = assay: as above
In short: as §1
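Throughout, for Bliss interaction score (quartile over a dose matrix): first quartile when negative (synergy) and third quartile when positive (antagonism).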

CC[C@H](C)[C@H](N)C1=N[C@H](C(=O)N[C@@H](CC(C)C)C(=O)N[C@H](CCC(=O)O)C(=O)N[C@H](C(=O)N[C@H]2CCCCNC(=O)[C@H](CC(N)=O)NC(=O)[C@@H](CC(=O)O)NC(=O)[C@H](Cc3cnc[nH]3)NC(=O)[C@@H](Cc3ccccc3)NC(=O)[C@H]([C@@H](C)CC)NC(=O)[C@@H](CCCN)NC2=O)[C@@H](C)CC)CS1 [Bacitracin] + Cn1nnc(-c2ccc(-c3ccc(N4C[C@H](CO)OC4=O)cc3F)cn2)n1 [Tedizolid]
fitness, S. aureus Newman [1]
Details	first compound 18.75 µg/mL	first compound 37.5 µg/mL	first compound 75 µg/mL
partner 0.0625 µg/mL	0.646	0.0796	0.0039
partner 0.125 µg/mL	–	0.0327	0.0056
partner 0.25 µg/mL	0.0222	0.0202	0.0046

Details	Bliss interaction score
B. subtilis 168 [4]	-0.0855
S. aureus DSM 20231	-0.0663
S. aureus Newman [2]	-0.222
S. pneumoniae D39V [3]	0.12

CC[C@H](C)[C@H](N)C1=N[C@H](C(=O)N[C@@H](CC(C)C)C(=O)N[C@H](CCC(=O)O)C(=O)N[C@H](C(=O)N[C@H]2CCCCNC(=O)[C@H](CC(N)=O)NC(=O)[C@@H](CC(=O)O)NC(=O)[C@H](Cc3cnc[nH]3)NC(=O)[C@@H](Cc3ccccc3)NC(=O)[C@H]([C@@H](C)CC)NC(=O)[C@@H](CCCN)NC2=O)[C@@H](C)CC)CS1 [Bacitracin] + O=C(N[C@H](CO)[C@H](O)c1ccc([N+](=O)[O-])cc1)C(Cl)Cl [Chloramphenicol]
fitness, S. aureus Newman [1]
Details	first compound 18.75 µg/mL	first compound 37.5 µg/mL	first compound 75 µg/mL
partner 0.75 µg/mL	0.589	0.182	0.0093
partner 1.5 µg/mL	0.38	0.0293	0.0143
partner 3 µg/mL	0.0184	0.0086	0.0146

Details	Bliss interaction score
B. subtilis 168 [4]	-0.106
S. aureus DSM 20231	-0.0262
S. aureus Newman [2]	-0.0971
S. pneumoniae D39V [3]	-0.0459

CC(=O)NC[C@H]1CN(c2ccc(N3CCOCC3)c(F)c2)C(=O)O1 [Linezolid] + CCC(C)C1C(=O)NC(=C)C(=O)NC(C(=O)NC(CSCC(C(=O)N1)NC(=O)/C(=C/C)/NC(=O)C(C(C)CC)N)C(=O)NC2C(SCC(NC(=O)CNC(=O)C3CCCN3C2=O)C(=O)NC(CCCCN)C(=O)NC4C(SCC(NC(=O)CNC(=O)C(NC(=O)C(NC(=O)C(NC(=O)CNC4=O)C)CC(C)C)CCSC)C(=O)NC(CC(=O)N)C(=O)NC(CCSC)C(=O)NC(CCCCN)C(=O)NC5C(SCC6C(=O)NC(C(=O)NC(CSC(C(C(=O)N6)NC(=O)C(NC5=O)C)C)C(=O)NC(CO)C(=O)NC(C(C)CC)C(=O)NC(CC7=CN=CN7)C(=O)NC(C(C)C)C(=O)NC(=C)C(=O)NC(CCCCN)C(=O)O)CC8=CN=CN8)C)C)C)CC(C)C [Nisin]
Details	fitness
B. subtilis 168 [6], first compound 0.125 µg/mL, partner 0.5 µg/mL	0.503
B. subtilis 168 [6], first compound 0.125 µg/mL, partner 1 µg/mL	0.421
B. subtilis 168 [6], first compound 0.125 µg/mL, partner 2 µg/mL	0.111
B. subtilis 168 [6], first compound 0.25 µg/mL, partner 0.5 µg/mL	0.167
B. subtilis 168 [6], first compound 0.25 µg/mL, partner 1 µg/mL	0.0862
B. subtilis 168 [6], first compound 0.25 µg/mL, partner 2 µg/mL	0.0407
S. pneumoniae D39V [5], first compound 0.105 µg/mL, partner 1.6 µg/mL	0.0032
S. pneumoniae D39V [5], first compound 0.105 µg/mL, partner 3.2 µg/mL	0.0264
S. pneumoniae D39V [5], first compound 0.105 µg/mL, partner 6.4 µg/mL	0.015
S. pneumoniae D39V [5], first compound 0.2 µg/mL, partner 0.4275 µg/mL	0.804
S. pneumoniae D39V [5], first compound 0.2 µg/mL, partner 0.855 µg/mL	0.657
S. pneumoniae D39V [5], first compound 0.2 µg/mL, partner 1.71 µg/mL	0.0574
S. pneumoniae D39V [5], first compound 0.21 µg/mL, partner 1.6 µg/mL	0
S. pneumoniae D39V [5], first compound 0.21 µg/mL, partner 3.2 µg/mL	0.0008
S. pneumoniae D39V [5], first compound 0.21 µg/mL, partner 6.4 µg/mL	0
S. pneumoniae D39V [5], first compound 0.4 µg/mL, partner 0.4275 µg/mL	0.63
S. pneumoniae D39V [5], first compound 0.4 µg/mL, partner 0.855 µg/mL	0.314
S. pneumoniae D39V [5], first compound 0.4 µg/mL, partner 1.71 µg/mL	0.0313
S. pneumoniae D39V [5], first compound 0.42 µg/mL, partner 1.6 µg/mL	0.0074
S. pneumoniae D39V [5], first compound 0.42 µg/mL, partner 3.2 µg/mL	0.0019
S. pneumoniae D39V [5], first compound 0.42 µg/mL, partner 6.4 µg/mL	0.0156
S. pneumoniae D39V [5], first compound 0.8 µg/mL, partner 0.4275 µg/mL	0.132
S. pneumoniae D39V [5], first compound 0.8 µg/mL, partner 0.855 µg/mL	0.0545
S. pneumoniae D39V [5], first compound 0.8 µg/mL, partner 1.71 µg/mL	0.0571

fitness, B. subtilis 168 [6], one replicate
Details	first compound 0.0625 µg/mL	first compound 0.125 µg/mL	first compound 0.25 µg/mL	first compound 0.5 µg/mL
partner 0.5 µg/mL	0.875	–	–	0.0342
partner 1 µg/mL	0.743	–	–	0.0597
partner 1.25 µg/mL	–	0.734	0.502	0.074
partner 1.6 µg/mL	–	0.411	0.0282	0.027
partner 2 µg/mL	0.547	–	–	0.0406
partner 2.5 µg/mL	–	0.187	0.118	0.0568
partner 3.2 µg/mL	–	0.0219	0.0214	0.042
partner 4 µg/mL	–	0.038	0.0369	0.023
partner 5 µg/mL	–	0.0523	0.0422	0.0652
partner 6.4 µg/mL	–	0.0537	0.0573	0.0278
partner 8 µg/mL	–	0.0224	0.0244	0.019
partner 16 µg/mL	–	0.0095	0.0006	0.0145

Details	Bliss interaction score
B. subtilis 168 [4]	-0.0535
S. aureus DSM 20231	-0.0557
S. aureus Newman [2]	-0.0621
S. pneumoniae D39V [3]	-0.0674
